Target: T1, peroxidasin (Mus musculus, UniProt Q3UQ28)
T1 construct: Cultured murine PFHR9 cells synthesize collagen IV networks that contain sulfilimine crosslinks due to the activity of PXDN; endogenous in cells; host or cells: PFHR-9 cells (isolated matrix from KI-treated culture)
T1 sequence (Q3UQ28 24-1475): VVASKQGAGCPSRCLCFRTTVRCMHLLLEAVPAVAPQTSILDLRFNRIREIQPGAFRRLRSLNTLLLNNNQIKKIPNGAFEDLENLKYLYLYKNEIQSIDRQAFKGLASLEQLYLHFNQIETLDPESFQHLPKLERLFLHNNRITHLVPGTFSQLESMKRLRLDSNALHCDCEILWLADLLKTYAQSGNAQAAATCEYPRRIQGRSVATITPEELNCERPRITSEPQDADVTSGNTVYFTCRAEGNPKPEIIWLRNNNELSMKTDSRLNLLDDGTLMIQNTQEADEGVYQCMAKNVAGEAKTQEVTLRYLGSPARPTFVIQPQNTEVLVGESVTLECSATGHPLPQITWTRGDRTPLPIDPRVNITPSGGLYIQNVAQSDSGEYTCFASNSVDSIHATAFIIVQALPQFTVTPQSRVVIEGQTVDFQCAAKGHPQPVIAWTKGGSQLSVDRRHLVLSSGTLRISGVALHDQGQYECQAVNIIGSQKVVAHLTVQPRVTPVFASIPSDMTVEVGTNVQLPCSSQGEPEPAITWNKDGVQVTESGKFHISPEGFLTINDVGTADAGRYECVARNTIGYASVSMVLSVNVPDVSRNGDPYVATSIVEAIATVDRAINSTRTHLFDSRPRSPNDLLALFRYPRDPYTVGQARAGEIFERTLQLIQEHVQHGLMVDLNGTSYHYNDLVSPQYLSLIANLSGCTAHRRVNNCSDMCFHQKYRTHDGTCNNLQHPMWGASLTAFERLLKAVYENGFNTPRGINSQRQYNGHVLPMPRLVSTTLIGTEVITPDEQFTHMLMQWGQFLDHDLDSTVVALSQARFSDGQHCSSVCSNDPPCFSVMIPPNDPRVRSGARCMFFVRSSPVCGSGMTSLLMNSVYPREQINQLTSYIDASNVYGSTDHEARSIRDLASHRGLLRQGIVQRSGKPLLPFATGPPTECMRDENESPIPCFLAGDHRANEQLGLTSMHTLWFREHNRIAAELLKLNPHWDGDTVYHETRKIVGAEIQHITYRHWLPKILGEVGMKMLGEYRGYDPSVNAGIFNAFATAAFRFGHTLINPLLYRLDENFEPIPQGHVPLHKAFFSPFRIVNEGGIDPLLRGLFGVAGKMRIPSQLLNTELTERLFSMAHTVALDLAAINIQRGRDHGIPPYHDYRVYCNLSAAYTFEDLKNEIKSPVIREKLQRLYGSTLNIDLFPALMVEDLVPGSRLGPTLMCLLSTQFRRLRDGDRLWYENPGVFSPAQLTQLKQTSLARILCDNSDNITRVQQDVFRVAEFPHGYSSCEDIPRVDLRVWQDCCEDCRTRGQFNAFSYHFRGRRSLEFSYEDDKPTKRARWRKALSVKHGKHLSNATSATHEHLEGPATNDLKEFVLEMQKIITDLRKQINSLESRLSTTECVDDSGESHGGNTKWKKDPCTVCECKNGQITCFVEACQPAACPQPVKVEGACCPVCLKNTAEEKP
Assay: In vitro basement membrane (uncrosslinked PFHR-9 matrix) reaction with halides and H2O2
Type: biochemical
Procedure: (FIG. 8A) Matrix pellets isolated from KI-treated PFHR9 cell culture were extensively washed into 10 mM phosphate buffer (pH 7.4) supplemented with 100 mM KF to maintain ionic strength. Potassium salts of Cl— or Br— were added in indicated amounts. 1 hr reactions at 37° C. were initiated by addition of H2O2 to 1 mM and stopped by freezing at −20° C. Coomassie blue-stained gels after collagenase digestion of the samples and SDS-PAGE (FIG. 8B) Schematic of Br-Free chloride salt purification apparatus and setup. […] Reagent KCl was commercially obtained and unaltered prior to analysis. 100 mM solutions were made with 18MΩ deionized water. (FIG. 8C) Coomassie blue stained gel of collagenase digested PFHR-9 matrix reaction assay. Reaction buffered contained 10 mM phosphate buffer (pH 7.4), 100 mM Br-Free or Commercially obtained reagent grade KCl, as well as 1 mM H2O2 and 200 μM PHG where appropriate. (FIG. 8D) SDS-PAGE and coomassie blue stain of hPXDN (27.25 nM) and NC1 domain (1.3 μM) reaction and subsequent densiometric quantitation of S═N bond formation stiochiometry in response to NaBr addition. hPXDN and PFHR-9 NC1 domain were prepared and purified as described (5), except with all buffers for all purification steps (dialysis, chromatography, gradient ultracentrifugation) made with Br-Free chloride salts. Reactions were run for 10 minutes at 37° C. with 10 μM H2O2 as the terminal oxidant. Dose-response curve run in the presence of 1× Br-Free PBS. Reactions were quenched with 0.2 mg/ml Catalase, 20 mM Methionine, and 1 mM PHG. EC50 value±95% C.I. from two independent experiments with each data point plotted and fit.
Uncrosslinked PFHR9 matrix was extensively washed into 10 mM phosphate buffer (pH 7.4) that was supplemented with 100 mM KF to maintain ionic strength. One hour reactions at 37° C. were initiated by addition of H2O2 to 1 mM and stopped by freezing at −20° C. […] Samples were digested with collagenase at 37° C. overnight and visualized by SDS-PAGE using 12% gels under non-reducing conditions with Coomassie staining.
PFHR-9 cells treated with potassium iodide (1-10 mM) to eliminate NC1 hexamer crosslinks were used for basement membrane isolation. To test halide dependency, the inventors established halide-free conditions by washing extensively (at least five times) with 10 mM sodium phosphate pH 7.4. To try to extract or inactivate endogenous basement membrane peroxidase activity, the inventors extracted the matrix preparation twice with 2M guanidine-Cl, 50 mM Tris-Cl pH 7.5 and 10 mM EDTA-Na pH 8 followed by extensive washing with 1×PBS. Basement membrane was resuspended in the desired buffer with or without cofactors and inhibitors to examine in vitro NC1 crosslinking under various conditions. Basement membranes were collagenase solubilized to delineate collagen IV NC1 sulfilimine crosslink formation with SDS-PAGE and Coomassie blue staining membrane was isolated, washed extensively and resuspended in 1×PBS. Azide (0-10 mM) and 1 mM H2O2 were added and allowed to react for 1 h at 37° C. The matrix was pelleted, washed extensively with 1×PBS and solubilized with 1×PBS plus 2% (w/v) SDS. Solubilized proteins were reacted with 100 μM Tris[(1-benzyl-1H-1,2,3-triazol-4-yl)methyl]amine (Anaspec), 1 mM Tris(2-carboxyethyl)phosphine hydrochloride (ThermoFisher Pierce), 1 mM cupric sulfate and 100 μM biotin alkyne (PEG4 carboxamide-propargyl biotin; Life Technologies) for 1 h at 37° C. Click chemistry reactions were quenched with 1 mM 3′-azido-3′-deoxythymidine (Sigma). For avidin-HRP detection, samples were electrophoresed under reducing conditions, transferred to nitrocellulose membranes and probed with streptavidin-HRP according to manufacturer instructions (ThermoFisher Pierce). To isolate biotinylated proteins, the inventors precipitated click reaction products with two volumes of cold acetone to remove reactants, washed them with 70% (v/v) acetone and then resolubilized them in 1×PBS plus 2% SDS.

## Br [bromide]
  crosslink formation on bromide addition to Br-free chloride: restored
  halide concentration at which crosslinked dimeric subunits formed: ~100 mM
  halide concentration permitting enzymatic crosslinking within purified matrix: 10 µM
pH 7.4
  S═N bond formation in isolated matrix: robustly catalyzed bond formation at 10 μM
